US12083156B1, “Extracts derived from laser-irradiated rhizome of curcuma longa having enhanced antimicrobial activity” (KING FAISAL UNIVERSITY, priority 2023, dated 2024)

Columns and labels:
Test in all cases: Antimicrobial bioassay, inhibition zone
Assay type in all cases: cell-based
Bacillus sp. = conditions: extracts 5 mg/L, Imipenem 10 μg, mean of nine replicate plates
Experimental: (§1) Each of the mean measurements was obtained from the average of nine replicate plates. The test solution positive control was 10 μg Imipenem. Three Curcuma longa extracts (5 mg/L) were prepared from ethanolic rhizome extracts as well as the control.

E. coli = conditions: Escherichia coli; extracts 5 mg/L; Imipenem 10 μg; mean of nine replicate plates
Experimental: as §1

S. aureus = conditions: Staphylococcus aureus; extracts 5 mg/L; Imipenem 10 μg; mean of nine replicate plates
Experimental: as §1

MRSA = conditions: Staphylococcus aureus, extracts 5 mg/L, Imipenem 10 μg, mean of nine replicate plates
Experimental: as §1

With C[C@@H](O)[C@H]1C(=O)N2C(C(=O)O)=C(SCCN=CN)C[C@H]12 [Imipenem] the zone of inhibition at 10 µg/disc (Bacillus sp.) was 19 mm, the zone of inhibition at 10 µg/disc (E. coli) was 20 mm and the zone of inhibition at 10 µg/disc (S. aureus) was 18 mm. For the same compound, the zone of inhibition at 10 µg/disc (MRSA) was 25 mm.
